# Data reported in patent US6355799B1, “Substituted benzene compounds, process for their preparation, and herbicidal and defoliant compositions containing them” (ISK Americas Incorporated, priority 1997, dated 2002).
# Columns and labels:
# Type in all cases: in vivo
# [1] = tested on: redroot pigweed (Amaranthus retroflexus, AMARE); test: Pre-emerge test, greenhouse herbicide activity screening; details: rating scale 0-100, 14 days after application
# Method in brief: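 Visual ratings on a 0-100 scale (0 no damage, 100 all plants dead) were taken at 14 days after treatment. Rates of 15-1000 g ai/ha in acetone, 187 l/ha, were sprayed onto soil one day after planting (pre-emerge) or onto 2-3 leaf plants with 0.25% v/v surfactant (post-emerge).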
# [2] = tested on: barnyardgrass (Echinochloa crus-galli, ECHCG); test: as above; details: rating scale 0-100, 14 days after application
# Method in brief: (§1)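 Fourteen days after spraying, crop and weed injury was graded visually from 0, no effect, to 100, every plant dead. Test substances were dissolved in acetone and applied at 15–1000 g ai/ha with a flat-fan nozzle. Application was either pre-emergence, one day after sowing, or post-emergence at the 2–3 leaf stage.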
# [3] = tested on: green foxtail (Setaria viridis, SETVI); test: as above; details: rating scale 0-100, 14 days after application
# Method in brief: as §1
# [4] = tested on: ivyleaf morningglory (Ipomoea hederacea, IPOHE); test: as above; details: rating scale 0-100, 14 days after application
# Method in brief: as §1
# [5] = tested on: johnsongrass (Sorghum halepense, SORHA); test: as above; details: rating scale 0-100, 14 days after application
# Method in brief: as §1
# [6] = tested on: lambsquarters (Chenopodium album, CHEAL); test: as above; details: rating scale 0-100, 14 days after application
# Method in brief: as §1
# [7] = tested on: large crabgrass (Digitaria sanguinalis, DIGSA); test: as above; details: rating scale 0-100, 14 days after application
# Method in brief: as §1
# [8] = tested on: sicklepod (Cassia obtusifolia, CASOB); test: as above; details: rating scale 0-100, 14 days after application
# Method in brief: as §1
# [9] = tested on: velvetleaf (Abutilon theophrasti, ABUTH); test: as above; details: rating scale 0-100, 14 days after application
# Method in brief: as §1
# [10] = tested on: field corn (Zea mays L., var. Dekalb 535, CORN); test: Pre-emerge test, crop safety; details: rating scale 0-100, 14 days after application
# Method in brief: (§2)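 Compounds in acetone were track-sprayed at 15-1000 g ai/ha (187 l/ha) on sandy loam pots: pre-emerge one day after seeding, post-emerge at 2-3 leaf stage with 0.25% v/v non-ionic surfactant. Phytotoxicity was rated 14 days later on a 0 (no damage) to 100 (complete death) scale.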
# [11] = tested on: upland rice (Oryza sp., var. Tebonnet, RICE); test: Pre-emerge test, crop safety; details: rating scale 0-100, 14 days after application
# Method in brief: as §2
# [12] = tested on: barnyardgrass (Echinochloa crus-galli, ECHCG); test: Post-emerge test, greenhouse herbicide activity screening; details: rating scale 0-100 (0 no damage, 100 complete death), 14 days after application
# Method in brief: as §1
# [13] = tested on: green foxtail (Setaria viridis, SETVI); test: as above; details: rating scale 0-100 (0 no damage, 100 complete death), 14 days after application
# Method in brief: as §1
# [14] = tested on: ivyleaf morningglory (Ipomoea hederacea, IPOHE); test: as above; details: rating scale 0-100 (0 no damage, 100 complete death), 14 days after application
# Method in brief: as §1
# [15] = tested on: johnsongrass (Sorghum halepense, SORHA); test: as above; details: rating scale 0-100 (0 no damage, 100 complete death), 14 days after application
# Method in brief: as §1
# [16] = tested on: lambsquarters (Chenopodium album, CHEAL); test: as above; details: rating scale 0-100 (0 no damage, 100 complete death), 14 days after application
# Method in brief: as §1
# [17] = tested on: large crabgrass (Digitaria sanguinalis, DIGSA); test: as above; details: rating scale 0-100 (0 no damage, 100 complete death), 14 days after application
# Method in brief: as §1
# [18] = tested on: redroot pigweed (Amaranthus retroflexus, AMARE); test: as above; details: rating scale 0-100 (0 no damage, 100 complete death), 14 days after application
# Method in brief: as §1
# [19] = tested on: sicklepod (Cassia obtusifolia, CASOB); test: as above; details: rating scale 0-100 (0 no damage, 100 complete death), 14 days after application
# Method in brief: as §1
# [20] = tested on: velvetleaf (Abutilon theophrasti, ABUTH); test: as above; details: rating scale 0-100 (0 no damage, 100 complete death), 14 days after application
# Method in brief: as §1
# [21] = tested on: field corn (Zea mays L., var. Dekalb 535, CORN); test: Post-emerge test, crop safety; details: rating scale 0-100 (0 no damage, 100 complete death), 14 days after application
# Method in brief: as §1
# [22] = tested on: upland rice (Oryza sp., var. Tebonnet, RICE); test: Post-emerge test, crop safety; details: rating scale 0-100 (0 no damage, 100 complete death), 14 days after application
# Method in brief: as §1
structure (smiles),measurement,setting,value
"COc1c(Cl)cc(F)c(-n2c(=O)cc(C(F)(F)F)n(C)c2=O)c1CC(Cl)C(=O)OCCOc1ccccc1 (single isomer, unassigned) [14-28]","Pre-emerge herbicidal activity, phytotoxicity rating AMARE",[1]; 63 g ai/ha,90
same,"Pre-emerge herbicidal activity, phytotoxicity rating AMARE",[1]; 250 g ai/ha,100
same,"Pre-emerge herbicidal activity, phytotoxicity rating ECHCG",[2]; 63 g ai/ha,0
same,"Pre-emerge herbicidal activity, phytotoxicity rating ECHCG",[2]; 250 g ai/ha,20
same,"Pre-emerge herbicidal activity, phytotoxicity rating SETVI",[3]; 63 g ai/ha,0
same,"Pre-emerge herbicidal activity, phytotoxicity rating SETVI",[3]; 250 g ai/ha,0
same,"Pre-emerge herbicidal activity, phytotoxicity rating IPOHE",[4]; 63 g ai/ha,0
same,"Pre-emerge herbicidal activity, phytotoxicity rating IPOHE",[4]; 250 g ai/ha,0
same,"Pre-emerge herbicidal activity, phytotoxicity rating SORHA",[5]; 63 g ai/ha,0
same,"Pre-emerge herbicidal activity, phytotoxicity rating SORHA",[5]; 250 g ai/ha,40
same,"Pre-emerge herbicidal activity, phytotoxicity rating CHEAL",[6]; 63 g ai/ha,0
same,"Pre-emerge herbicidal activity, phytotoxicity rating CHEAL",[6]; 250 g ai/ha,95
same,"Pre-emerge herbicidal activity, phytotoxicity rating DIGSA",[7]; 63 g ai/ha,0
same,"Pre-emerge herbicidal activity, phytotoxicity rating DIGSA",[7]; 250 g ai/ha,100
same,"Pre-emerge herbicidal activity, phytotoxicity rating CASOB",[8]; 63 g ai/ha,0
same,"Pre-emerge herbicidal activity, phytotoxicity rating CASOB",[8]; 250 g ai/ha,0
same,"Pre-emerge herbicidal activity, phytotoxicity rating ABUTH",[9]; 63 g ai/ha,0
same,"Pre-emerge herbicidal activity, phytotoxicity rating ABUTH",[9]; 250 g ai/ha,80
same,"Pre-emerge phytotoxicity rating, crop damage CORN",[10]; 63 g ai/ha,0
same,"Pre-emerge phytotoxicity rating, crop damage CORN",[10]; 250 g ai/ha,20
same,"Pre-emerge phytotoxicity rating, crop damage RICE",[11]; 63 g ai/ha,0
same,"Pre-emerge phytotoxicity rating, crop damage RICE",[11]; 250 g ai/ha,0
same,"Post-emerge Herbicidal Activity, phytotoxicity rating ECHCG",[12]; Rate 63 g ai/ha,100
same,"Post-emerge Herbicidal Activity, phytotoxicity rating ECHCG",[12]; Rate 250 g ai/ha,100
same,"Post-emerge Herbicidal Activity, phytotoxicity rating SETVI",[13]; Rate 63 g ai/ha,0
same,"Post-emerge Herbicidal Activity, phytotoxicity rating SETVI",[13]; Rate 250 g ai/ha,30
same,"Post-emerge Herbicidal Activity, phytotoxicity rating IPOHE",[14]; Rate 63 g ai/ha,50
same,"Post-emerge Herbicidal Activity, phytotoxicity rating IPOHE",[14]; Rate 250 g ai/ha,70
same,"Post-emerge Herbicidal Activity, phytotoxicity rating SORHA",[15]; Rate 63 g ai/ha,0
same,"Post-emerge Herbicidal Activity, phytotoxicity rating SORHA",[15]; Rate 250 g ai/ha,50
same,"Post-emerge Herbicidal Activity, phytotoxicity rating CHEAL",[16]; Rate 63 g ai/ha,95
same,"Post-emerge Herbicidal Activity, phytotoxicity rating CHEAL",[16]; Rate 250 g ai/ha,100
same,"Post-emerge Herbicidal Activity, phytotoxicity rating DIGSA",[17]; Rate 63 g ai/ha,20
same,"Post-emerge Herbicidal Activity, phytotoxicity rating DIGSA",[17]; Rate 250 g ai/ha,50
same,"Post-emerge Herbicidal Activity, phytotoxicity rating AMARE",[18]; Rate 63 g ai/ha,90
same,"Post-emerge Herbicidal Activity, phytotoxicity rating AMARE",[18]; Rate 250 g ai/ha,100
same,"Post-emerge Herbicidal Activity, phytotoxicity rating CASOB",[19]; Rate 63 g ai/ha,30
same,"Post-emerge Herbicidal Activity, phytotoxicity rating CASOB",[19]; Rate 250 g ai/ha,30
same,"Post-emerge Herbicidal Activity, phytotoxicity rating ABUTH",[20]; Rate 63 g ai/ha,100
same,"Post-emerge Herbicidal Activity, phytotoxicity rating ABUTH",[20]; Rate 250 g ai/ha,100
same,Post-emerge phytotoxicity rating CORN (crop damage),[21]; Rate 63 g ai/ha,10
same,Post-emerge phytotoxicity rating CORN (crop damage),[21]; Rate 250 g ai/ha,70
same,Post-emerge phytotoxicity rating RICE (crop damage),[22]; Rate 63 g ai/ha,0
same,Post-emerge phytotoxicity rating RICE (crop damage),[22]; Rate 250 g ai/ha,40
